# Assay results from ChEMBL document CHEMBL5465560, “Selectivity Literature for EUbOPEN Chemogenomic Library” (2024).
# Columns and labels:
# [1] = system: eIF-2-alpha kinase GCN2 (Homo sapiens), Q9P2K8 [S808G]; conditions: at 10 µM
# [2] = target: T1, Ephrin type-A receptor 6 (Homo sapiens) (UniProt Q9UF33); assay: Selectivity interaction (KinomeScan (DiscoverX)) EUB0000655a EPHA6; conditions: at 10 µM
# T1 sequence (whole entry): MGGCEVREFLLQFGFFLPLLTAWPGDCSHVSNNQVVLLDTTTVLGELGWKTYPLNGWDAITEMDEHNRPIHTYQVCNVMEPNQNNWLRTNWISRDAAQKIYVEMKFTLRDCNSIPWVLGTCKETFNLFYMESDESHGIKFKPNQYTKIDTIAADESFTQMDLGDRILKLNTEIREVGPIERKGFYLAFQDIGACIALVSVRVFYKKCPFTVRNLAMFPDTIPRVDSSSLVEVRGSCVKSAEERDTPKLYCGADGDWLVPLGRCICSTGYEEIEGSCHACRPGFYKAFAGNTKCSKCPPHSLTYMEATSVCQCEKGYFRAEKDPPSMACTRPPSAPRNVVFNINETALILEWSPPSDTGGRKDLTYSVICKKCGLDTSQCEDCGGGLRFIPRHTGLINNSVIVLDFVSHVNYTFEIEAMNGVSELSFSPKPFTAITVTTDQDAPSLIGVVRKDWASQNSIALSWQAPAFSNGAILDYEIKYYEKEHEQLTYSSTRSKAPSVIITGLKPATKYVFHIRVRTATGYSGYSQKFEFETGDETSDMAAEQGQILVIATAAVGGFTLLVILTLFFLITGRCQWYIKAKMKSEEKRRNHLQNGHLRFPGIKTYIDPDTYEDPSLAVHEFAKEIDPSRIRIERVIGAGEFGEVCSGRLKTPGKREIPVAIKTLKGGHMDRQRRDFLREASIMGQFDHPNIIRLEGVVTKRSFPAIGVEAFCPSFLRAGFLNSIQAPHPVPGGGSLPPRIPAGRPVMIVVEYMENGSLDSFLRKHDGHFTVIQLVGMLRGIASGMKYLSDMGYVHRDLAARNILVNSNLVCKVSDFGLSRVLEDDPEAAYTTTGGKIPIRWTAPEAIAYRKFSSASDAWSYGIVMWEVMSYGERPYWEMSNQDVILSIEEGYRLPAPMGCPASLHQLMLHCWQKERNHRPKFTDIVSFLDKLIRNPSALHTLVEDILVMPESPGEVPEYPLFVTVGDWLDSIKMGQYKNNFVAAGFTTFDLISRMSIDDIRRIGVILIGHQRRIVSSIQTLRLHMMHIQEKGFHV
# [3] = target: Mitogen-activated protein kinase kinase kinase kinase 5 (Homo sapiens) (UniProt Q9Y4K4); assay: Selectivity interaction (Kinase panel (KiNativ target engagement assay in Jurkat cells)) EUB0001635a MAP4K5; assay type: cell-based; conditions: Selectivity number of off-targets 0.0, Selectivity number of targets 233.0, Source Knowledge https://www.sciencedirect.com/science/article/pii/S2451945619300674?via%3Dihub, at 1 µM
# Sequence of Mitogen-activated protein kinase kinase kinase kinase 5 (Homo sapiens) (Q9Y4K4 whole entry, looked up): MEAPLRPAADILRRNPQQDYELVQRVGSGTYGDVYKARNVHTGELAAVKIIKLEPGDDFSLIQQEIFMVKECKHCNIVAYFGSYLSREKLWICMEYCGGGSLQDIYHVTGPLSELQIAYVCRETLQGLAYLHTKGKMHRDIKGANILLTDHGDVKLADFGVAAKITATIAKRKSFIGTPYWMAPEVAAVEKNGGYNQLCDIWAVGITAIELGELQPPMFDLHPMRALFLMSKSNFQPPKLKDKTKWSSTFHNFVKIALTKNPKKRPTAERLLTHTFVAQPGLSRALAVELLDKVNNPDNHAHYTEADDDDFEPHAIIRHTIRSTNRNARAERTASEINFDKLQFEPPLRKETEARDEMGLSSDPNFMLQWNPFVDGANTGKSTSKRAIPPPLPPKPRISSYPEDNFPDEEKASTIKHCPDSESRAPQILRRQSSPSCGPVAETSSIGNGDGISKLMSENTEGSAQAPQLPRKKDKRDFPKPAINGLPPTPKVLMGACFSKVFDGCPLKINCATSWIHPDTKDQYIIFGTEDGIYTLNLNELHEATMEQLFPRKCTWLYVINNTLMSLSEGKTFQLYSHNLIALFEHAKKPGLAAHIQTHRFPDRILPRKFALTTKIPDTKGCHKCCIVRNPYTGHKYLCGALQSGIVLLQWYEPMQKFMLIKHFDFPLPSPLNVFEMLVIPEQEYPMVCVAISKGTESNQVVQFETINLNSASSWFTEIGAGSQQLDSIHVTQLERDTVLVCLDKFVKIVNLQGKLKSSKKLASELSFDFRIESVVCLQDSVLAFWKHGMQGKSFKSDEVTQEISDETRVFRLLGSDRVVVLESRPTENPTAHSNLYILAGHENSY
# [4] = target: T2, Interleukin-1 receptor-associated kinase 4 (Homo sapiens) (UniProt Q9NWZ3); assay: Selectivity interaction (KinomeScan (DiscoverX)) EUB0000666a IRAK4; conditions: at 10 µM
# T2 sequence (whole entry): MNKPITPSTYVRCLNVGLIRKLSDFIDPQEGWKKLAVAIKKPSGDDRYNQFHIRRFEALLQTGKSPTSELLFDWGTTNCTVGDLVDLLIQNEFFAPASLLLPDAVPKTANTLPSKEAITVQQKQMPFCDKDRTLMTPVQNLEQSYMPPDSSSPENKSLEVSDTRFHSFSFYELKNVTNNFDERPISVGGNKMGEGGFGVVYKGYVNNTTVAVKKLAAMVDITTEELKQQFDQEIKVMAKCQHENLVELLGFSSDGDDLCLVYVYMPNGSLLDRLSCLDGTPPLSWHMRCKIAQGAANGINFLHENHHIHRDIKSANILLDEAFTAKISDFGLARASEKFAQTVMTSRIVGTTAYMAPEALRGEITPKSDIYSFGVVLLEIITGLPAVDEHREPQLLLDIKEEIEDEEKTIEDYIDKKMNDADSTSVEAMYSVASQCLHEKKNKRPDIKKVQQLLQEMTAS
# [5] = target: T3, Mitogen-activated protein kinase 12 (Homo sapiens) (UniProt P53778); assay: Selectivity interaction (KinomeScan (DiscoverX)) EUB0000595a MAPK12; conditions: at 10 µM
# T3 sequence (whole entry): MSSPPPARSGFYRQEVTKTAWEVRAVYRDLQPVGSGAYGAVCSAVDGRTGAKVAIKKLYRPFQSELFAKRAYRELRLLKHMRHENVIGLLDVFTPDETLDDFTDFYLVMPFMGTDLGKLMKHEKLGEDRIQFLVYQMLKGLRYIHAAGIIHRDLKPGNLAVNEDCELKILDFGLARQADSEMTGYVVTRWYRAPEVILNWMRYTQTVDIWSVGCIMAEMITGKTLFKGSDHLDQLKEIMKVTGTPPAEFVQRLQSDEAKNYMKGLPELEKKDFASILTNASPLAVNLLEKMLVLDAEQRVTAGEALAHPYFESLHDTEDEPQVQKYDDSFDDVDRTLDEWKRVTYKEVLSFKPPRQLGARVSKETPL
# [6] = target: Ribosomal protein S6 kinase alpha-6 (Homo sapiens, UniProt Q9UK32); assay: Selectivity interaction (KinomeScan (DiscoverX)) EUB0000595a RPS6KA6; conditions: at 10 µM
# Sequence of Ribosomal protein S6 kinase alpha-6 (Q9UK32 whole entry): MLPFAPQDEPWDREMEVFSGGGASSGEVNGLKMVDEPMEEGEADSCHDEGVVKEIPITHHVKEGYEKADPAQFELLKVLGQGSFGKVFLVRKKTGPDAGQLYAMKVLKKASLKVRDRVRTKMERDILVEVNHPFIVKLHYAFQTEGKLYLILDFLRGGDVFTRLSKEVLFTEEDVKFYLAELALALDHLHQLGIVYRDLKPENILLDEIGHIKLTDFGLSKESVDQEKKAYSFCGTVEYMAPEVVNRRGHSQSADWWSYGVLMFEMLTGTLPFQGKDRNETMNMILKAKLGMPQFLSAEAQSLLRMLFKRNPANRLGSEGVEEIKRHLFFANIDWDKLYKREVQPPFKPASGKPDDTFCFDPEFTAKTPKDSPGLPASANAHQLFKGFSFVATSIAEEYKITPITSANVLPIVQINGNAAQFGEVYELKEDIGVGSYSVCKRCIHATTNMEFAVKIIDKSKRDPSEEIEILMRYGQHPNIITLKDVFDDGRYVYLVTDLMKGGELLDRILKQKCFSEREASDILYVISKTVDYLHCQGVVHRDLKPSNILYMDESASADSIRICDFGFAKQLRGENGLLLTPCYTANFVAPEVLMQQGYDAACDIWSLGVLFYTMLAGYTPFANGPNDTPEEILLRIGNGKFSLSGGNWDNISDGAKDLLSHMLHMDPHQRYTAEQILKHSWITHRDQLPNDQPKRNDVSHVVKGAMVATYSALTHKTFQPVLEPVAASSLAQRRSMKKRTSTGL
# [7] = target: Dual specificity mitogen-activated protein kinase kinase 1 (Homo sapiens, UniProt Q02750); assay: Selectivity interaction (ActivX KiNativ screen (ex vivo kinase selectivity in human PBMCs)) EUB0001619a MAP2K1; assay type: cell-based; conditions: PBMC, at 1 µM
# Sequence of Dual specificity mitogen-activated protein kinase kinase 1 (Q02750 whole entry): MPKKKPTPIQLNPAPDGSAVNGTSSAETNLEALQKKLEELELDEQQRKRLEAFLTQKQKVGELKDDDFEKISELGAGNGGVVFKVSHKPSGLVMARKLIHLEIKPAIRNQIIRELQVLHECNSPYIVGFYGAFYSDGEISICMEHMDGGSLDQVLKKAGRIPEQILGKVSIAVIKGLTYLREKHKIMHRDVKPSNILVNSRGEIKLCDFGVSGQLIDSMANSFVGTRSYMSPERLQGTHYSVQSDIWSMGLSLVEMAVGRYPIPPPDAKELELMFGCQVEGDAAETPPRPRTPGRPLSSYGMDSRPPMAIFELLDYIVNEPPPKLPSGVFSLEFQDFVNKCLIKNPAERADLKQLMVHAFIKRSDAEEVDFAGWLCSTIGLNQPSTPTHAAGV
# Sequence of eIF-2-alpha kinase GCN2 (Homo sapiens), Q9P2K8 [S808G] (Q9P2K8 whole entry S808G): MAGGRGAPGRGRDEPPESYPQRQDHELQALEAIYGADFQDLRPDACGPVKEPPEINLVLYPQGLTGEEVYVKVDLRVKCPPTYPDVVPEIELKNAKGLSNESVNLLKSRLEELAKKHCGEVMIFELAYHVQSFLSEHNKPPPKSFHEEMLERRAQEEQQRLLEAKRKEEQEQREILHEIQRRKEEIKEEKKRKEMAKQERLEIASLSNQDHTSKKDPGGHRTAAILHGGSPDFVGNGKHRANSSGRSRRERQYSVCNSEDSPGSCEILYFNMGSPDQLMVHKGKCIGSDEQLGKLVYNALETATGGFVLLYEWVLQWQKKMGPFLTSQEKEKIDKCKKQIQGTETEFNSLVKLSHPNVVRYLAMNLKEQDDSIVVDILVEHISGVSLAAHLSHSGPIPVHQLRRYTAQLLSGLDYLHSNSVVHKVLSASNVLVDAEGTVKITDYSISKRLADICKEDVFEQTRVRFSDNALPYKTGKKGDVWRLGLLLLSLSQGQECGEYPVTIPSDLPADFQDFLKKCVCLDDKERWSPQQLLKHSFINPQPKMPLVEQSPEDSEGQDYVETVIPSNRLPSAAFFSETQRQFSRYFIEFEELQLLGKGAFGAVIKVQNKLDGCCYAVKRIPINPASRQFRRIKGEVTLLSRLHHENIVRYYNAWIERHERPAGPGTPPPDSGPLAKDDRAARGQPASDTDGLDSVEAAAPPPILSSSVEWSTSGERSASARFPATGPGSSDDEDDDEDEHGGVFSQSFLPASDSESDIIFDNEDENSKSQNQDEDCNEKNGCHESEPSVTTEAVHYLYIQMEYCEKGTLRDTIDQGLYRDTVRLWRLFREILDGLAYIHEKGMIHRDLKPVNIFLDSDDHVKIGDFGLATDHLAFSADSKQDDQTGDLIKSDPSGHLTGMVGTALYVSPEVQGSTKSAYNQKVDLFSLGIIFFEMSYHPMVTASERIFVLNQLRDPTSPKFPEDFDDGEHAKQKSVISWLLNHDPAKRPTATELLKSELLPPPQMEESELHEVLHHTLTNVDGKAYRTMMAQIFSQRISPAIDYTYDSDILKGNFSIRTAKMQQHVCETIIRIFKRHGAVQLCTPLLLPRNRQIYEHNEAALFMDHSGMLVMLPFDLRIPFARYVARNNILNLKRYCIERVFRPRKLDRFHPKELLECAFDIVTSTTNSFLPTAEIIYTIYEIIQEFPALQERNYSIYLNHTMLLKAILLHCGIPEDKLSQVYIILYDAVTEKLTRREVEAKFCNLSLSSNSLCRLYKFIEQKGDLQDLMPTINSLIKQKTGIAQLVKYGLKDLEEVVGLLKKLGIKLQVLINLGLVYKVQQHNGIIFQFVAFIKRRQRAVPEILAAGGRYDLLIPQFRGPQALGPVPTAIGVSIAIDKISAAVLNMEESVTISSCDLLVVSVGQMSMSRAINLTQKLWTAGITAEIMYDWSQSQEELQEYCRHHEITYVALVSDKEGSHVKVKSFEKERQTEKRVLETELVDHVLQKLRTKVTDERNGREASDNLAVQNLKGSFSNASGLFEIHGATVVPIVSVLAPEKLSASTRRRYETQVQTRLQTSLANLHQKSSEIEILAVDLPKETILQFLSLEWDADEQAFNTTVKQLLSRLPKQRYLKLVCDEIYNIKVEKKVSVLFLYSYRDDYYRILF
smiles,measurement,setting,value
CCN(CC)CCCCNc1ncc2cc(-c3cc(OC)cc(OC)c3)c(NC(=O)NC(C)(C)C)nc2n1,% of control,[1],100%
CN(C)CCOc1ccc(-c2nc(-c3ccncc3)c(-c3ccc4c(c3)CC/C4=N\O)[nH]2)cc1,% of control,[2],88%
C=CC(=O)Nc1ccc(C(=O)Nc2[nH]nc3c2CN(C(=O)N[C@H](CN(C)C)c2ccccc2)C3(C)C)cc1,% of engagement,[3],6%
O=C(NOC[C@H](O)CO)c1ccc(F)c(F)c1Nc1ccc(I)cc1F,% of control,[4],100%
COCC(=O)NC/C=C/c1ccc2ncnc(Nc3ccc(Oc4ccc(C)nc4)c(C)c3)c2c1 [CP-724714],% of control,[5],100%
same,% of control,[6],96%
N#Cc1cccc(-c2c[nH]c3ncnc(N4CCOCC4)c23)c1,% of inhibition,[7],0%
